# Tests used:
# BRD4 (BD1) = target: T1, BRD4 (BD1) (Homo sapiens, UniProt O60885); assay: Binding assay BRD4/acetylated peptide H4 (TR-FRET protein-protein interaction assay)
# T1 construct: with relatively long constructs also being possible, preferably amino acids 44-168; made in house; host or cells: E. coli
# Procedure, shortened: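 Displacement of biotin-Ac-H4 peptide from His6-tagged BRD4(BD1), final usually 10 nM, read as Eu-streptavidin to anti-His-XL665 TR-FRET (665/620 nm). Compounds tested at 11 doses up to 20 μM in duplicate, pH 7.5 HEPES, 22 °C then 4 °C incubation; IC50 by 4-parameter regression.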
# MOLM-13 cells = assay: Cell proliferation assay (alamarBlue), MOLM-13; assay type: cell-based; conditions: Homo sapiens, 96 hours incubation, inhibition of cell proliferation
# Procedure, shortened: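 IC50 = concentration giving 50% growth inhibition relative to buffer-treated cells, after subtracting baseline fluorescence taken before dosing. Compound applied at 1E-5 to 1E-8 M for 96 h at 37 °C in RPMI1640 with 10% FCS; alamarBlue signal at 530/590 nm.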
# B16F10 cells = assay: Cell proliferation assay (alamarBlue), B16F10; assay type: cell-based; conditions: Mus musculus, B16-F10, 96 hours incubation, inhibition of cell proliferation
# Experimental: (§1) In accordance with the invention, the capability of the substances to inhibit cell proliferation was determined Cell viability was determined using the alamarBlue® reagent (Invitrogen) in a Victor X3 Multilabel Reader (Perkin Elmer). The excitation wavelength was 530 nm and the emission wavelenth […].
# The B16F10 cells (ATCC, CRL-6475) were sown at a concentration of 300-500 cells/well in 100 μl growth medium (DMEM with phenol red, 10% FCS) on 96-well microtitre plates.
# (§2) After an overnight incubation at 37° C., the fluorescence values (CI values) were determined. The plates were then treated with various substance dilutions (1E-5 M, 3E-6 M, 1E-6M, 3E-7 M, 1E-7 M, 3E-8 M, 1E-8 M) and incubated at 37° C. for 72 (MV4-11-, LOX-IMVI cells), 96 (MOLM-13-, B16F10-, MDA-MB-431-, Caov-3 cells), 120 (MOLP-8-, KMS-12-PE cells) or 168 (LAPC-4 cells) hours. The fluorescence values (CO values) were then determined. For the data analysis, the CI values were subtracted from the CO values and the results were compared between cells treated with different dilutions of the substance or with buffer solution only. These were used to calculate the IC 50 values (substance concentration required for 50% inhibition of cell proliferation).
# LAPC-4 cells = assay: Cell proliferation assay (alamarBlue), LAPC-4; assay type: cell-based; conditions: Homo sapiens, LAPC4; inhibition of cell proliferation, LAPC-4 (prostate cancer), 1 nM methyltrienolone, 168 hours
# Experimental: as §1
# The LAPC-4 cells (ATCC, PTA-1441TM) were sown at a concentration of 4000 cells/well in 100 μl growth medium (RPMI1640, 2 mM L-glutamine, 10% cFCS) on 96-well microtitre plates. A day later, the LAPC-4 cells were treated with 1 nM methyltrienolone and various substance dilutions.
# as §2
# MDA-MB-231 cells = assay: Cell proliferation assay (alamarBlue), MDA-MB-231; assay type: cell-based; conditions: Homo sapiens; inhibition of cell proliferation, MDA-MB-231 (breast carcinoma), 96 hours
# Experimental: as §1
# (§3) The MDA-MB-231 cells (DSMZ, ACC 732) were sown at a concentration of 4000 cells/well in 100 μl growth medium (DMEM/Ham's F12 medium, 10% FCS) on 96-well microtitre plates. The Caov-3 cells (ATCC, HTB-75) were sown at a concentration of 2000 cells/well in 100 μl growth medium (MEM Earle's medium, 10% FCS) on 96-well microtitre plates.
# as §2
# MV4-11 cells = assay: Cell proliferation assay (alamarBlue), MV4-11; assay type: cell-based; conditions: Homo sapiens, 72 hours incubation, inhibition of cell proliferation
# Experimental: as §1
# The MV4-11 cells (ATCC, CRL 9591) were sown at a concentration of 5000 cells/well in 100 μl growth medium (RPMI1640, 10% FCS) on 96-well microtitre plates.
# as §2
# LOX-IMVI cells = assay: Cell proliferation assay (alamarBlue), LOX-IMVI; assay type: cell-based; conditions: Homo sapiens, 72 hours incubation, inhibition of cell proliferation
# Experimental: as §1
# The LOX-IMVI cells (NCI-60) were sown at a concentration of 1000 cells/well in 100 μl growth medium (RPMI1640, 10% FCS) on 96-well microtitre plates.
# as §2
# MOLP-8 cells = assay: Cell proliferation assay (alamarBlue), MOLP-8; assay type: cell-based; conditions: Homo sapiens, 120 hours incubation, inhibition of cell proliferation
# Procedure, shortened: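 MOLP-8 cells in RPMI1640 with 20% FCS, 4000 cells/well, treated overnight after seeding with substance at 1E-5 to 1E-8 M for 120 h at 37° C. Viability read by alamarBlue fluorescence (ex 530, em 590); pre-treatment values subtracted, compared with buffer-only cells to derive IC50.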
# KMS-12-PE cells = assay: Cell proliferation assay (alamarBlue), KMS-12-PE; assay type: cell-based; conditions: Homo sapiens, 120 hours incubation, inhibition of cell proliferation
# Experimental: as §1
# The KMS-12-PE cells (DSMZ, ACC 606) were sown at a concentration of 4000 cells/well in 100 μl growth medium (RPMI1640, 20% FCS) on 96-well microtitre plates.
# as §2
# Caov-3 cells = assay: Cell proliferation assay (alamarBlue), Caov-3; assay type: cell-based; conditions: Homo sapiens; inhibition of cell proliferation, Caov-3 (ovarian carcinoma), 96 hours
# Experimental: as §1, §3, §2
Structure (SMILES),IC50 (BRD4 (BD1)),IC50 (MOLM-13 cells),IC50 (B16F10 cells),IC50 (LAPC-4 cells),IC50 (MDA-MB-231 cells),IC50 (MV4-11 cells),IC50 (LOX-IMVI cells),IC50 (MOLP-8 cells),IC50 (KMS-12-PE cells),IC50 (Caov-3 cells)
"CNC(=O)N1N=C(c2ccc(Cl)cc2)c2cc(OC(F)(F)F)ccc2CC1C (racemic) [Example 1, (±)-1-(4-Chlorophenyl)-N,4-dimethyl-8-(trifluoromethoxy)-4,5-dihydro-3H-2,3-benzodiazepine-3-carboxamide]",190 nM,1260 nM,690 nM,600 nM,900 nM,,,,,
"CNC(=O)N1N=C(c2ccc(-c3ccc(C(=O)O)s3)cc2)c2cc(OC)c(OC)cc2CC1C (racemic) [Example 5, (±)-5-(4-{7,8-dimethoxy-4-methyl-3-[(methylamino)carbonyl]-4,5-dihydro-3H-2,3-benzodiazepin-1-yl}phenyl)thiophene-2-carboxylic acid]",30 nM,820 nM,690 nM,270 nM,1350 nM,,,,,
"CNC(=O)N1N=C(c2ccc(Cl)cc2)c2cc(-c3ccncc3)ccc2CC1C (racemic) [Example 8, (±)-1-(4-Chlorophenyl)-N,4-dimethyl-8-(pyridin-4-yl)-4,5-dihydro-3H-2,3-benzodiazepine-3-carboxamide]",90 nM,380 nM,190 nM,180 nM,280 nM,,,,,
"CNC(=O)N1N=C(c2ccc(Cl)cc2)c2cc(C3CC3)ccc2CC1C (racemic) [Example 9, (±)-1-(4-chlorophenyl)-8-cyclopropyl-N,4-dimethyl-4,5-dihydro-3H-2,3-benzodiazepine-3-carboxamide]",120 nM,650 nM,540 nM,430 nM,730 nM,,,,,
"CNC(=O)N1N=C(c2ccc(Cl)cc2)c2cc(-c3ccc(S(=O)(=O)NC)cc3)ccc2CC1C (racemic) [Example 10, (±)-1-(4-chlorophenyl)-N,4-dimethyl-8-{4-[(methylamino)sulphonyl]phenyl}-4,5-dihydro-3H-2,3-benzodiazepine-3-carboxamide]",160 nM,310 nM,270 nM,120 nM,260 nM,,,,,
"CNC(=O)N1N=C(c2ccc(Cl)cc2)c2cc(N3CCOCC3)ccc2CC1C (racemic) [Example 11, (±)-1-(4-Chlorophenyl)-N,4-dimethyl-8-(morpholin-4-yl)-4,5-dihydro-3H-2,3-benzodiazepine-3-carboxamide]",310 nM,1910 nM,1120 nM,450 nM,2580 nM,,,,,
CNC(=O)N1N=C(c2ccc(Cl)cc2)c2cc(OC(F)(F)F)c(Cl)cc2CC1C (racemic) [Example 15],870 nM,3450 nM,,,6230 nM,,,,,
"CNC(=O)N1N=C(c2ccc(Cl)cc2)c2cc(N3CCOCC3)ccc2C[C@@H]1C [Example 11.1, (4S)-1-(4-Chlorophenyl)-N,4-dimethyl-8-(morpholin-4-yl)-4,5-dihydro-3H-2,3-benzodiazepine-3-carboxamide]",80 nM,570 nM,,310 nM,1110 nM,,,,,
"CNC(=O)N1N=C(c2ccc(Cl)cc2)c2cc(N3CCOCC3)ccc2C[C@H]1C [Example 11.2, (4R)-1-(4-Chlorophenyl)-N,4-dimethyl-8-(morpholin-4-yl)-4,5-dihydro-3H-2,3-benzodiazepine-3-carboxamide]",2510 nM,7740 nM,,,10000 nM,,,,,
"CNC(=O)N1N=C(c2ccc(-n3nc(C)cc3C)cc2)c2cc(OC)ccc2C[C@@H]1C [Example 16, (4S)-1-[4-(3,5-Dimethyl-1H-pyrazol-1-yl)phenyl]-8-methoxy-N,4-dimethyl-4,5-dihydro-3H-2,3-benzodiazepine-3-carboxamide]",50 nM,220 nM,,110 nM,470 nM,270 nM,640 nM,290 nM,250 nM,370 nM
"CNC(=O)N1N=C(c2ccc(N3CCOCC3)cc2)c2cc(OC)ccc2C[C@@H]1C [Example 17, (4S)-8-Methoxy-N,4-dimethyl-1-[4-(morpholin-4-yl)phenyl]-4,5-dihydro-3H-2,3-benzodiazepine-3-carboxamide]",40 nM,170 nM,,100 nM,210 nM,130 nM,300 nM,110 nM,110 nM,220 nM
"CNC(=O)N1N=C(c2ccc(-c3cnoc3)cc2)c2cc(OC)ccc2C[C@@H]1C [Example 18, (4S)-1-[4-(4-Isoxazolyl)phenyl]-8-methoxy-N,4-dimethyl-4,5-dihydro-3H-2,3-benzodiazepine-3-carboxamide]",160 nM,250 nM,,,280 nM,300 nM,760 nM,340 nM,350 nM,480 nM
"CNC(=O)N1N=C(c2ccc(-c3ccnn3C)cc2)c2cc(OC)ccc2C[C@@H]1C [Example 19, (4S)-8-methoxy-N,4-dimethyl-1-[4-(1-methyl-1H-pyrazol-5-yl)phenyl]-4,5-dihydro-3H-2,3-benzodiazepine-3-carboxamide]",40 nM,170 nM,,110 nM,,270 nM,650 nM,270 nM,270 nM,410 nM
"CNC(=O)N1N=C(c2ccc(-c3c(C)noc3C)cc2)c2cc(OC)ccc2C[C@@H]1C [Example 20, (4S)-1-[4-(3,5-dimethyl-4-isoxazolyl)phenyl]-8-methoxy-N,4-dimethyl-4,5-dihydro-3H-2,3-benzodiazepine-3-carboxamide]",70 nM,190 nM,,120 nM,220 nM,140 nM,330 nM,120 nM,110 nM,240 nM
"CNC(=O)N1N=C(c2ccc(-n3nc(C)cc3COC)cc2)c2cc(OC)ccc2C[C@@H]1C [Example 27, (4S)-8-methoxy-1-{4-[5-(methoxymethyl)-3-methyl-1H-pyrazol-1-yl]phenyl}-N,4-dimethyl-4,5-dihydro-3H-2,3-benzodiazepine-3-carboxamide]",30 nM,630 nM,,180 nM,,,,,,
"CNC(=O)N1N=C(c2ccc(-n3nc(-c4ccccn4)cc3C3CC3)cc2)c2cc(OC)ccc2C[C@@H]1C [Example 28, (4S)-1-{4-[5-cyclopropyl-3-(pyridin-2-yl)-1H-pyrazol-1-yl]phenyl}-8-methoxy-N,4-dimethyl-4,5-dihydro-3H-2,3-benzodiazepine-3-carboxamide]",10 nM,40 nM,,20 nM,,30 nM,40 nM,20 nM,30 nM,40 nM

# From patent publication US9890147B2 (BAYER PHARMA AKTIENGESELLSCHAFT, priority 2012, dated 2018)
